Measurements: patent US12577211B2, “Probenecid compounds for the treatment of inflammasome-mediated lung disease” (Bacainn Biotherapeutics, Ltd., priority 2020, dated 2026)

Tests used:
NLRP3 inflammasome = target: T1, NLRP3 inflammasome (Mus musculus, UniProt Q8R4B8); assay: IL-1β secretion (ELISA) in LPS-primed iBMDMs stimulated with silica or nigericin; type: cell-based, murine; settings: LPS 100 ng/mL primed iBMDMs; silica 250 μg/mL or nigericin 6 μM; compound 300, 150, 30, 3 μM
T1 construct: Immortalized wild-type C57BL/6 bone-marrow derived macrophages (iBMDMs); endogenous in cells; host or cells: immortalized wild-type C57BL/6 bone-marrow derived macrophages (iBMDMs), LPS-primed
T1 sequence (Q8R4B8 whole entry): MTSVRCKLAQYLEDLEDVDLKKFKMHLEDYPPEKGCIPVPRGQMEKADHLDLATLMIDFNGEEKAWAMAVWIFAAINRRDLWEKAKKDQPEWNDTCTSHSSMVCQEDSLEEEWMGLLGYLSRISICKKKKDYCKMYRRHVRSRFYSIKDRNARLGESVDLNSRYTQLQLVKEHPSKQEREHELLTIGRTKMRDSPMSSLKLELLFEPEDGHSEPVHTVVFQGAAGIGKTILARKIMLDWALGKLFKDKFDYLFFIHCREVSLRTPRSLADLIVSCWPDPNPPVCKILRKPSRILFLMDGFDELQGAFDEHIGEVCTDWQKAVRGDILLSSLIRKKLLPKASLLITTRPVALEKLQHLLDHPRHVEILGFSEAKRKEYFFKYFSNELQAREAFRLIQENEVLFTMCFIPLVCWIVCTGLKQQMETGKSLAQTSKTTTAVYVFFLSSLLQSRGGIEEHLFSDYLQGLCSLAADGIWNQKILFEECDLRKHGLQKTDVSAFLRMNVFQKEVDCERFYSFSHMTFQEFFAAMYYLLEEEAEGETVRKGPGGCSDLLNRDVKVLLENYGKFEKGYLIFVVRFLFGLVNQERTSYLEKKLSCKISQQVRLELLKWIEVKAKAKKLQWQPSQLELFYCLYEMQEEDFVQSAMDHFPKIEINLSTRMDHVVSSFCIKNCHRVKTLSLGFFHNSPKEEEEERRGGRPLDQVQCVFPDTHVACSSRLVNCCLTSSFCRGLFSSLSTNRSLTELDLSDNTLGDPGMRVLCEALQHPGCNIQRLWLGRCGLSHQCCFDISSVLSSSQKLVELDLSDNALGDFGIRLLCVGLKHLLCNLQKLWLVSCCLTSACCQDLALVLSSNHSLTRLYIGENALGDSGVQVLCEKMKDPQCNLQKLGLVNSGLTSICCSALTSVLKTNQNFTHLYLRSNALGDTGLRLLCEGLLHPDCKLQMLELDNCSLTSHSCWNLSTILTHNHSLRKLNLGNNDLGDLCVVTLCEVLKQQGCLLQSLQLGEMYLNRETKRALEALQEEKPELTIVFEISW
Method: In vitro stimulation of murine macrophages. Immortalized wild-type C57BL/6 bone-marrow derived macrophages (iBMDMs) were grown in DMEM supplemented with 10% heat inactivated FBS and 2 mM glutamine. iBMDMs were seeded in 96-well plates 24 hours prior incubation with lipopolysaccharide (LPS; 100 ng/mL) for 3 hours. Cells were then incubated with a control probenecid compound (probenecid dissolved in DMSO (Prob/D), probenecid dissolved in PBS (Prob/P)) or one of the probenecid analogs of the present technology (BT032, BT132, BT133, BT134, BT135, BT136, BT137, BT138, BT139, or BT140) at concentrations of 300 μM, 150 μM, 30 μM, or 3 μM 1 hour prior to stimulation with NLRP3 inflammasome activators, silica (250 μg/mL) or nigericin (6 μM). After an additional 6 hours, cell supernatants were collected and levels of IL-1β were quantified by ELISA. These experiments were run in triplicate three times.

[1] = test system: HKx31 (H3N2) influenza A virus; type: in vivo, C57BL/6 mice
NLRP1 [2] = assay: NLRP1-mediated inflammasome activity, secreted IL-1β ELISA in immortalized BMDMs (L18-MDP); type: cell-based, murine; settings: for NLRP1 (L18-MDP)-induced inflammasome activation: BT032 20, 100 μM, MCC950 5 μM
[3] = test system: non-canonical inflammasome; assay: Non-canonical inflammasome activity (LPS (B4)), secreted IL-1β ELISA in immortalized BMDMs; type: cell-based, murine; settings: BT032 20, 100 μM
AIM2 = target: T2, AIM2 (Mus musculus, UniProt Q91VJ1); assay: AIM2 (poly dA:dT)-mediated inflammasome activation, secreted IL-1β ELISA in immortalized BMDMs; type: cell-based, murine; settings: BT032 20, 100 μM
T2 sequence (Q91VJ1 1-354): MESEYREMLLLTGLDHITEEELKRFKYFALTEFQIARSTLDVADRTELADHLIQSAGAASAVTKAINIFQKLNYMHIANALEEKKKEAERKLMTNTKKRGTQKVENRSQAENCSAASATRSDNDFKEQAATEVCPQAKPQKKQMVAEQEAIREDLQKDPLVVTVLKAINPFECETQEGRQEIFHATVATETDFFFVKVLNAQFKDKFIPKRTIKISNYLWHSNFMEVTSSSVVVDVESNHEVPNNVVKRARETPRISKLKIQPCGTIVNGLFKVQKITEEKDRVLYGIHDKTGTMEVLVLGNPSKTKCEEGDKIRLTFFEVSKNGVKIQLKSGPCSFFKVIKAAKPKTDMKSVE

NLRC4 = NLRC4 (Mus musculus, UniProt Q3UP24); assay: NLRC4 (Flagellin)-mediated inflammasome activation, secreted IL-1β ELISA in immortalized BMDMs; type: cell-based, murine; settings: BT032 20, 100 μM
Sequence of NLRC4 (Q3UP24 whole entry): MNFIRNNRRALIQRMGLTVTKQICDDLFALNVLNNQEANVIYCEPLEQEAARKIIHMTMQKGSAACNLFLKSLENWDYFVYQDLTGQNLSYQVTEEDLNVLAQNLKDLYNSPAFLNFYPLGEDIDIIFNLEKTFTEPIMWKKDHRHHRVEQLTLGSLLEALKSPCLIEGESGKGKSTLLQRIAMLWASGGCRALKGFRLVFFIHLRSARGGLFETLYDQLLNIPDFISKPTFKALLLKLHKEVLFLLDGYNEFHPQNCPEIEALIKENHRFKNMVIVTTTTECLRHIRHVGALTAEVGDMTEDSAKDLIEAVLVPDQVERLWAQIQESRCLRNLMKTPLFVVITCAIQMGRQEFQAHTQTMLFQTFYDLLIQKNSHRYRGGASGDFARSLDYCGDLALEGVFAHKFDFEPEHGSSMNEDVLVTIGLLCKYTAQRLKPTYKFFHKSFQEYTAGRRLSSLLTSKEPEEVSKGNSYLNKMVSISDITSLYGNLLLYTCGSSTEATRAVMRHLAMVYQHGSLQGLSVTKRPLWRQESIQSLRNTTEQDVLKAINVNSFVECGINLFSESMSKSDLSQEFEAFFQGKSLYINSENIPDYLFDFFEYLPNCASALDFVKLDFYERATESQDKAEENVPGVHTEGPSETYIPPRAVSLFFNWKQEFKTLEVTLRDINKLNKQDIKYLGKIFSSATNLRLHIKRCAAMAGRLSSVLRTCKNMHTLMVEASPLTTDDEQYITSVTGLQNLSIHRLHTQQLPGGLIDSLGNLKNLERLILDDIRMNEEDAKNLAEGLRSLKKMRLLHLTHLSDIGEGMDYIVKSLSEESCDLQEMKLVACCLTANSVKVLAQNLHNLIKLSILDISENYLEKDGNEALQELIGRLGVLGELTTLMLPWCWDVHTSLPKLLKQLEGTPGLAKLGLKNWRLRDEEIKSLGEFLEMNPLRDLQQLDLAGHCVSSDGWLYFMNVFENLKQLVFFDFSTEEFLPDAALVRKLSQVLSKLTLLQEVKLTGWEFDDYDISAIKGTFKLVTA

NLRP1 [4] = target: T3, NLRP1 (Homo sapiens, UniProt Q9C000); assay: poly I:C NLRP1 activation in primary human bronchial epithelial cells, secreted IL-1β ELISA; type: cell-based; settings: 20, 100, 350 μM
T3 construct: Primary bronchial epithelial cells (PBEC) were obtained from bronchial brushings; endogenous in cells; host or cells: primary human bronchial epithelial cells (PBEC) from bronchial brushings
T3 sequence (Q9C000 1-1212 limits assumed): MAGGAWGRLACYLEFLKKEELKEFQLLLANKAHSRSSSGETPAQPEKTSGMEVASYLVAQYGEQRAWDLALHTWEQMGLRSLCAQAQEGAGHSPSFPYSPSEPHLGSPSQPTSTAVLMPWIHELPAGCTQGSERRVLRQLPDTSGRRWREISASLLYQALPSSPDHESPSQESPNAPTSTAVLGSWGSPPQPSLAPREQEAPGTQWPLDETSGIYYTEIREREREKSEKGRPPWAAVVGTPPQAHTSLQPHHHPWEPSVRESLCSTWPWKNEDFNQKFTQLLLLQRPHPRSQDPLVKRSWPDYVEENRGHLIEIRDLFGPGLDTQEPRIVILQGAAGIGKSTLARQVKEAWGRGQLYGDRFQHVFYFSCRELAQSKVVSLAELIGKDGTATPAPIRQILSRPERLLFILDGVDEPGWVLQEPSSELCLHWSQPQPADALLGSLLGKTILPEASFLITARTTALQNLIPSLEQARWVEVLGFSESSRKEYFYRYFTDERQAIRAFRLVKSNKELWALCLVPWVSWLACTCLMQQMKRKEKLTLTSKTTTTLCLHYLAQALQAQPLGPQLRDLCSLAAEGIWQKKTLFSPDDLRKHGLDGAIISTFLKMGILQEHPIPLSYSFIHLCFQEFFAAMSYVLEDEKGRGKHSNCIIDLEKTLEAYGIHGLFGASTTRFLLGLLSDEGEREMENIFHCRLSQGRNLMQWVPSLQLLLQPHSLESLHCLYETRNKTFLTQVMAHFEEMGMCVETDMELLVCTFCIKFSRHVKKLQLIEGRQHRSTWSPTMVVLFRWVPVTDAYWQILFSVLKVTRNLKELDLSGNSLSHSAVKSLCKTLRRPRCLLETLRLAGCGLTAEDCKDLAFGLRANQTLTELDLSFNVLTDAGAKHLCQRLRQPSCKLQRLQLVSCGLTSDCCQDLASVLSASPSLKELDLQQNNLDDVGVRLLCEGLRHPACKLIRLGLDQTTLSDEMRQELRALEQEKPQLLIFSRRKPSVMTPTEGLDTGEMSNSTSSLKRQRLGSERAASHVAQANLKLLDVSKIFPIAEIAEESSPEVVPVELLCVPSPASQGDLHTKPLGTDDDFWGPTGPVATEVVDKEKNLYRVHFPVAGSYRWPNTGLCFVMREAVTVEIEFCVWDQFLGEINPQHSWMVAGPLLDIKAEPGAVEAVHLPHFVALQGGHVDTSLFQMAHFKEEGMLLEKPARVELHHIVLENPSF
T3 sequence (Q9C000 1213-1473 limits assumed): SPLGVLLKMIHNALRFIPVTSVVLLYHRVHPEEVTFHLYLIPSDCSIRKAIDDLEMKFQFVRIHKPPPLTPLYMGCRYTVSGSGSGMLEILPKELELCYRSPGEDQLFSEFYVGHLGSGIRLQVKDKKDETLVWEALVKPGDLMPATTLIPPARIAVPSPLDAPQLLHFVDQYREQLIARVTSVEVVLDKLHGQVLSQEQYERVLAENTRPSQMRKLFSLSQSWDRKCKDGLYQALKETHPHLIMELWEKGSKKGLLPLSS
Method: Methods. Primary bronchial epithelial cells (PBEC) were obtained from bronchial brushings and cultured under submerged conditions on collagen-coated flasks in supplemented bronchial epithelial growth medium. PBECs were seeded at 2.5×10^5/ml cells in collagen-coated 96 well plates overnight.

[5] = test system: ASC specks (NLRP3 inflammasome complex); assay: Nigericin-induced ASC speck formation in ASC-cerulean/NLRP3 macrophages; type: cell-based; settings: 350 μM, 60 mins before nigericin 3 μM for 90 mins
NLRP1 [6] = assay: NLRP1 (L18-MDP)-induced inflammasome activation in immortalized BMDMs, secreted IL-1β ELISA (Example 10); type: cell-based; settings: 20, 100, 350 μM; L18-MDP 100 μg/mL, 16 hours
NLRP3 = NLRP3 (Mus musculus, UniProt Q8R4B8); assay: NLRP3-mediated inflammasome activity, secreted IL-1β ELISA in LPS-primed immortalized BMDMs (nigericin, MSU, silica)
Sequence of NLRP3 (Q8R4B8 whole entry): as the sequence (Q8R4B8 whole entry) above

CCCN(CCC)S(=O)(=O)c1ccc(-c2ccc(CCCC(=O)O)cc2)cc1 [BT032, 4-(4′-(N,N-dipropylsulfamoyl)-[1,1′-biphenyl]-4-yl)butanoic acid]
potency in reducing IL-1β secretion compared with control probenecid compounds (NLRP3 inflammasome): more potent than the control probenecid compounds
survival of mice ([1]; […], survival without treatment 5 days): 7-9 days post-infection
pulmonary inflammation and cellular infiltrates in BAL (total cells, alveolar macrophages, neutrophils, Ly6C+ macrophages, dendritic cells, MCP-1) ([1]; mouse, in vivo): reduce hyperinflammation in the airways
NLRP1 (L18-MDP)-induced inflammasome activation (NLRP1 [2]): dose-dependently inhibited
IC50 (NLRP1 [2]; L18-MDP 100 μg/mL, drug 3.9-350 μM, read-out: IC50, inhibition of NLRP1-mediated inflammasome activity): 30 µM
non-canonical inflammasome activity (LPS (B4)) [3]: limited impact
AIM2 (poly dA:dT)-mediated inflammasome activation (AIM2): no effect
NLRC4 (Flagellin)-mediated inflammasome activation (NLRC4): no effect
poly I:C NLRP1 activation (IL-1β secretion) (NLRP1 [4]): inhibited poly I:C NLRP1 activation
ASC specks in cells [5]: substantially reduced ASC specks
NLRP1 (L18-MDP)-induced inflammasome activation (secreted IL-1β) (NLRP1 [6]): dose-dependently inhibited
IC50 (NLRP3): 30 µM
NLRP3 (Nigericin, MSU, Silica)-induced inflammasome activation (NLRP3; BT032 20, 100 μM, MCC950 5 μM, secreted IL-1β): dose-dependently inhibited

CCCN(CCC)S(=O)(=O)c1ccc(N2CCC(CCCC(=O)O)CC2)cc1 [BT135, 4-(1-(4-(N,N-dipropylsulfamoyl)-phenyl)piperidin-4-yl)butanoic acid]
NLRP1 (L18-MDP)-induced inflammasome activation (secreted IL-1β) (NLRP1 [6]): dose-dependently inhibited

CCCN(CCC)S(=O)(=O)c1ccc(-c2nc(CCCC(=O)O)cs2)cc1 [BT136, 4-(2-(4-(N,N-dipropylsulfamoyl)phenyl)thiazol-4-yl)butanoic acid]
potency in reducing IL-1β secretion compared with control probenecid compounds (NLRP3 inflammasome): more potent than the control probenecid compounds
NLRP1 (L18-MDP)-induced inflammasome activation (secreted IL-1β) (NLRP1 [6]): dose-dependently inhibited

CC(C)(O)c1coc(S(=O)(=O)NC(=O)Nc2c3c(cc4c2CCC4)CCC3)c1 [MCC950, reference compound]
NLRP1 (L18-MDP)-induced inflammasome activation (NLRP1 [2]): no impact upon NLRP1 activity
